From patent publication US6960300B2, “Process for preparing water soluble diterpenes and their applications” (Sami Labs Limited, priority 2003, dated 2005)
In brackets after ≈: the same amount, converted by molar mass.

Columns and labels:
[1] = system: Intraocular pressure (IOP), ocular hypertension; assay: Anti-glaucoma activity: intraocular pressure (IOP) in rabbits with betamethasone-induced ocular hypertension, non-contact tonometer; type: in vivo, Albino rabbit (New Zealand strain); conditions: for IOP Readings, right eye (treated): average of 6 determinations
From the text: An illustrative example of the biological activity of the preparation is presented. The anti-glaucoma activity of the forskolin composition was studied in albino rabbits. A 1% solution of Forskolin in water as described in example 8 was used for the experiments
Study design: Animal model: Albino rabbit Number of groups: 4 Number of animals in each group: 6 in treatment group and 2 in control group
Materials and methods: Six albino rabbits of New Zealand strain, of both sexes, weighing […] were chosen. The rabbits were housed in clean and well-ventilated open space. Each rabbit was fed with standard diet daily and water was administered ad libitum throughout the study.
Ocular hypertension was induced by the method reported by Bonomi et al (Invest Ophthalmol. 1976 September; 15(9):781-4.) The rabbits were given 0.3 ml subconjunctival injection of Betnesol containing betamethasone sodium 4 mg/ml, every day to each eye for a period of three weeks (the Intraocular pressure (IOP) at third week was maximum as per literature). Local anesthetic propracaine eye drops were used prior to subconjunctival injections.
In each rabbit the left eye was kept as control for glaucoma and the right eye was treated for glaucoma using Forskolin, Timolol, and the placebo.
For each treatment, the IOP readings were measured at intervals of 30 minutes up to 210 minutes using the non-contact tonometer (NCT).

[2] = Determination of the aqueous solubility of Forskolin (intrinsic solubility, HPLC); type: physicochemical
Method: Determination of the aqueous solubility of Forskolin. Forskolin (300 mg) was dried at 105° C. for 6 hours. Dried Forskolin 200 mg was stirred with 100 ml water for 48 hours for the determination of intrinsic solubility at ambient temperatureResulting solution was filtered through 0.45 μm nylon filter and analyzed for the content of Forskolin by HPLC.

[3] = Solubility of Forskolin / Isoforskolin in water containing cyclodextrin (HPLC of filtered solution); type: physicochemical
Method: To solubilize Forskolin using cyclodextrins, the chosen cyclodextrin and Forskolin are mixed in water in specific proportions. The aqueous solution is filtered to remove any undissoved particles to obtain a clear aqueous solution of Forskolin in water.
Forskolin (98.5% assay, 25 mg) was added to 1 ml water containing in the dissolved state 500 mg Hydroxy propyl β cyclodextrin, HPBCD, (˜50%) Suspension was agitated at 75 RPM in an isothermal shaker for 60 hours at temperature ˜30° C.
Forskolin (98.5% assay, 50 mg) was added to 1 ml water containing 500 mg Hydroxy propyl γ-cyclodextrin in the dissolved state. (HPGCD) (˜50%). Suspension was agitated at 75 RPM in an isothermal shaker for 60 hours at temperature ˜30° C.
Experiments were performed by “changing” the crystallinity of Forskolin by recrystallizing from methylene chloride and from ethyl acetate. Resulting “amorphous” Forskolin was used for complexation with Hydroxyropyl γ-cyclodextrin HPGCD. Forskolin (29.3 mg) recrystallized with methylene dichloride (Forskolin assay 99.0%) was added to 3 ml water containing 1.5 gram Hydroxy propyl γ-cyclodextrin, HPGCD (˜50%). Suspension was agitated at 75 RPM in an isothermal shaker for 160 hour at temperature 30° C.
Forskolin (30.3 mg) recrystallized with ethyl acetate (Forskolin assay 98.8%) was added to 3 ml water containing 1.5 gram Hydroxy propyl γ-cyclodextrin, HPGCD (˜50%). Suspension was agitated at 75 RPM in an isothermal shaker for 160 hour at temperature 30° C.
Forskolin (98.5% assay, 330 mg) was added to 10 ml water containing 4 g of RAMEBCD (˜40%). Suspension was agitated at 75 RPM in an isothermal shaker for 40 hours at temperature 30° C.
Solubility of Forskolin in water was determined at the different concentrations of RAMEBCD ranging from 5 to 66%.
A typical aqueous formulation of Forskolin with a cyclodextrin is prepared as follows, RAMEBCD, being used as the example of cyclodextrin RAMEBCD (100 g) is taken in a one liter flask with mechanical or magnetic stirring facility. Forskolin (5.5 g) was charged into the flask. Water (400 ml) is charged to the flask and the contents were agitated at room temperature. A clear solution is obtained. If any undissolved Forskolin particles are seen, they are resuspended and stirred. Benzalkonium chloride (50 mg) and Disodium EDTA (500 mg) are added and dissolved in the flask. The pH of the contents could be adjusted to the desired range with the help of 0.1N sodium hydroxide. (usually pH range 3.5 to 7.5). Calculated amount of sodium chloride solution is added to maintain the osmolarity of the solution equivalent to that of 0.9% sodium chloride. The total volume of the solution is made up to 500 ml after sterile filtration. A solution thus prepared has approximately 1% of Forskolin in the dissolved state. Other cyclodextrins also could be used and depending on the cyclodextrin used, the dissolved content of Forskolin in water differed.
Isoforskolin also could be used in place of Forskolin. In one preparation, Isoforskolin (50 mg) was suspended in water containing a suitable amount of a cyclodextrin, for example, R AMEBCD (20 g) in about 100 ml water.

[4] = Dissolution in water of Forskolin-RAMEBCD residue obtained by evaporating acetone; type: physicochemical; conditions: Forskolin 50 mg + RAMEBCD 1 gram from acetone, residue in 5 ml water
Method: Alternatively, the cyclodextrin and Forskolin in certain proportions are dissolved in a suitable solvent such as ethanol or acetone or ethyl acetate. The solvent is removed to leave behind a white powder. Such powder freely dissolves in water as the examples will illustrate. Further, additives to the aqueous solution of Forskolin can also be added. These additives are usually used for maintaining sterility, pH maintenance, maintenance of osmolarity etc.
Forskolin (50 mg) was dissolved in 5 ml acetone, and 1 gram of RAMEBCD was dissolved in 5 ml acetone separately. Both the solutions were mixed together and solvent acetone was evaporated under reduced pressure. Residue was dried and dissolved in 5 ml water. This residue dissolved very easily within 1 hour of stirring forming a clear colorless solution.

[5] = polyvinylpyrrolidone and polyethyleneglycol-glyceryl tririicinoleate, U.S. Pat. No. 6,346,273; cited from earlier work
[6] = 25° C.; cited from earlier work

SMILES | IOP Readings, right eye (treated) ([1]; time 0 mins) [mmHg] | IOP Readings, right eye (treated) ([1]; time 30 mins) [mmHg] | IOP Readings, right eye (treated) ([1]; time 60 mins) [mmHg] | IOP Readings, right eye (treated) ([1]; time 90 mins) [mmHg] | IOP Readings, right eye (treated) ([1]; time 120 mins) [mmHg] | IOP Readings, right eye (treated) ([1]; time 150 mins) [mmHg] | IOP Readings, right eye (treated) ([1]; time 180 mins) [mmHg] | IOP Readings, right eye (treated) ([1]; time 210 mins) [mmHg] | other results
CC(C)(C)NC[C@H](O)COc1nsnc1N1CCOCC1 [Timolol] | 13 | 8 | 7 | 5 | 4 | 3.5 | 4.5 | 6 | 
C=C[C@@]1(C)CC(=O)[C@]2(O)[C@@]3(C)[C@@H](O)CCC(C)(C)[C@@H]3[C@H](O)[C@H](OC(C)=O)[C@@]2(C)O1 [Forskolin] | 14 | 7 | 6.5 | 4.5 | 5 | 6 | 7 | 7.5 | Concentration of Forskolin solution in water in the absence of cyclodextrin ([2]; no cyclodextrin): about 0.001%; Content of Forskolin by HPLC (intrinsic solubility in water) ([2]; stirred 48 hours, ambient temperature, 0.45 μm filtered): 0.001 % w/v; solubility at 48 h ([2]; thermodynamic from solid, water, stirred 48 hours, ambient temperature, 0.45 μm filtered, read-out: Content of Forskolin by HPLC (intrinsic solubility in water)): 10 µg/mL (≈ 24.4 µM); % Forskolin w/v (solubility in water) ([3]; 5% RAMEBCD): 0.09 % w/v; % Forskolin w/v (solubility in water) ([3]; 10% RAMEBCD): 0.272 % w/v; % Forskolin w/v (solubility in water) ([3]; 15% RAMEBCD): 0.767 % w/v; % Forskolin w/v (solubility in water) ([3]; 20% RAMEBCD): 1.15 % w/v; % Forskolin w/v (solubility in water) ([3]; 40% RAMEBCD): 2.746 % w/v; % Forskolin w/v (solubility in water) ([3]; 53.28% RAMEBCD): 4.165 % w/v; % Forskolin w/v (solubility in water) ([3]; 66.6% RAMEBCD): 5.029 % w/v; Forskolin in the dissolved state in the aqueous formulation ([3]; Example 8 formulation: RAMEBCD 100 g, Forskolin 5.5 g, made up to 500 ml, room temperature): approximately 1%; Time of stirring for the residue to dissolve in water forming a clear colorless solution [4]: ≤ 1 h; Anti-glaucoma activity (conclusion) ([1]; 1% solution of Forskolin in water as in example 8): anti-glaucoma activity comparable to Timolol; Maximum solubility of Forskolin achieved [5]: 0.2%
OC[C@H]1O[C@@H]2O[C@H]3[C@H](O)[C@@H](O)[C@@H](O[C@H]4[C@H](O)[C@@H](O)[C@@H](O[C@H]5[C@H](O)[C@@H](O)[C@@H](O[C@H]6[C@H](O)[C@@H](O)[C@@H](O[C@H]7[C@H](O)[C@@H](O)[C@@H](O[C@H]8[C@H](O)[C@@H](O)[C@@H](O[C@H]9[C@H](O)[C@@H](O)[C@@H](O[C@H]%10[C@H](O)[C@@H](O)[C@@H](O[C@H]1[C@H](O)[C@H]2O)O[C@@H]%10CO)O[C@@H]9CO)O[C@@H]8CO)O[C@@H]7CO)O[C@@H]6CO)O[C@@H]5CO)O[C@@H]4CO)O[C@@H]3CO [δ-cyclodextrin] |  |  |  |  |  |  |  |  | Water solubility [6]: 8.19 g/100 ml
C=C[C@@]1(C)CC(=O)[C@@]2(O)[C@](C)(O1)[C@@H](O)[C@@H](OC(C)=O)C1C(C)(C)CC[C@H](O)[C@@]12C (some centres unmarked) [Isoforskolin] |  |  |  |  |  |  |  |  | Isoforskolin present in filtered solution by HPLC ([3]; RAMEBCD (20 g) in about 100 ml water, room temperature): approximately 0.5%
